Values quoted from earlier work in patent publication US9078464B2 (EDIO HEALTHCARE AB, priority 2008, dated 2015).

Settings: in vivo

CC(C)CCC[C@@H](C)[C@H]1CC[C@H]2[C@@H]3CC=C4C[C@@H](O)CC[C@]4(C)[C@H]3CC[C@]12C [cholesterol]
absorption from the intestine: around 60%
